Assay results as given in ChEMBL document CHEMBL5608168, “An overview of PROTACs targeting MDM2 as a novel approach for cancer therapy” (Eur J Med Chem, 2024).
Blank lines part the entries; values can stand above or below the compound they belong to.

Key:
A549 [1] = assay: Anticancer activity against human A549 cells assessed as reduction in cell growth incubated for 72 hrs by CCK-8 assay; format: functional, cell-based; details: A549, 72 h
[2] = Terminal half life in Sprague-Dawley rat at 2 mg/kg, iv by LC-MS/MS analysis; format: ADME, organism-based; details: in vivo
A549 [3] = assay: Antitumor activity against human A549 cells xenografted in BALB/c nude mouse assessed as tumor growth inhibition at 30 mg/kg, ip administered twice daily for 21 days relative to control; format: functional; details: A549, 504 h, time 21 day, read-out: TGI
MOLM-13 = assay: Antiproliferative activity against human MOLM-13 assessed as reduction in cell viability; format: functional, cell-based
[4] = Antiproliferative activity against human derived Acute myeloid leukemic cells assessed as reduction in cell viability incubated for 48 hr by CellTiter-Glo assay; format: functional, cell-based; details: Leukemia cell
[5] = Metabolic stability in mouse liver microsomes assessed as half life; format: ADME, Microsome
[6] = Antiproliferative activity against human Triple-negative breast cancer cell; format: functional, cell-based; details: Breast carcinoma cell
[7] = target: E3 ubiquitin-protein ligase Mdm2 (Homo sapiens, UniProt Q00987); assay: Homo-PROTAC activity at MDM2 in human A549 cells assessed as self ubiquitination mediated protein degradation by Western Blot analysis; format: cell-based
Sequence of E3 ubiquitin-protein ligase Mdm2 (Q00987 whole entry): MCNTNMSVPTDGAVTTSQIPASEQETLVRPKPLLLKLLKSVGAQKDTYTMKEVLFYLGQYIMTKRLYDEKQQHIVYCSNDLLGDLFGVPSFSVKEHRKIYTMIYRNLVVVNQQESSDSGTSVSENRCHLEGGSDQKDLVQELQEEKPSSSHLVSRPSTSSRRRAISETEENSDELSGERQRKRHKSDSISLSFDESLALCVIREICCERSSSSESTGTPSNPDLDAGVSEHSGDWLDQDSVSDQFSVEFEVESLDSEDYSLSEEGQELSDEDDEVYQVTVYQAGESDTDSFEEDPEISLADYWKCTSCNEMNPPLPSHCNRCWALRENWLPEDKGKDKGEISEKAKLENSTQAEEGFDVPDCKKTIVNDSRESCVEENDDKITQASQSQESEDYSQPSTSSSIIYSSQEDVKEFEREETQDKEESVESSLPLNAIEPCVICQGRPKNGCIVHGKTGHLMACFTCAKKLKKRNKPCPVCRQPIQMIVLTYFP

A549 [8] = assay: Induction of apoptosis in human A549 cells assessed as apoptotic rate at 5 uM incubated for 24 hrs by Annexin V-FITC staining based flow cytometry relative to control; format: functional

SMILES: CCOc1cc(C(C)(C)C)ccc1C1=N[C@@H](c2ccc(Cl)cc2)[C@@H](c2ccc(Cl)cc2)N1C(=O)N1CCN(CC(=O)NCCOCCOCCOCCNC(=O)CN2CCN(C(=O)N3C(c4ccc(C(C)(C)C)cc4OCC)=N[C@@H](c4ccc(Cl)cc4)[C@H]3c3ccc(Cl)cc3)CC2=O)C(=O)C1
IC50 (A549 [1]): 0.58 µM | beta t1/2 [2]: 576 min | inhibition in vivo at 30 mg/kg (A549 [3]): 52.4%

IC50 (MOLM-13): 0.05 µM
SMILES: Cc1ncsc1-c1ccc(CNC(=O)[C@@H]2C[C@@H](O)CN2C(=O)[C@@H](NC(=O)CCCCCCCCC(=O)N2CCN(S(=O)(=O)C[C@@H](N3C(=O)[C@@](C)(CC(=O)O)C[C@H](c4cccc(Cl)c4)[C@H]3c3ccc(Cl)cc3)C(C)(C)C)CC2)C(C)(C)C)cc1
IC50 [4]: 0.04 µM

SMILES: CCOc1cc(C(C)(C)C)ccc1C1=N[C@@](C)(c2ccc(Cl)cc2)[C@@](C)(c2ccc(Cl)cc2)N1C(=O)N1CCN(CC(=O)NCCOCCOCCOCC(=O)N[C@H](C(=O)N2C[C@H](O)C[C@H]2C(=O)NCc2ccc(-c3scnc3C)cc2)C(C)(C)C)CC1
half-life [5]: 25.9 min | IC50 [6]: 4 µM

SMILES: CCOc1cc(C(C)(C)C)ccc1C1=NC(c2ccc(Cl)cc2)C(c2ccc(Cl)cc2)N1C(=O)N1CCN(CC(=O)NCCOCCOCCOCCNC(=O)CN2CCN(C(=O)N3C(c4ccc(C(C)(C)C)cc4OCC)=NC(c4ccc(Cl)cc4)C3c3ccc(Cl)cc3)CC2=O)C(=O)C1 (racemic)
DC50 [7]: 1.01 µM

SMILES: C[C@H]1[C@H](C)CC[C@]2(C(=O)NCCOCCOCCOCCNc3cccc4c3C(=O)N(C3CCC(=O)NC3=O)C4=O)CC[C@]3(C)C(=CC[C@@H]4[C@@]5(C)CC[C@H](O)C(C)(C)[C@@H]5CC[C@]43C)[C@H]12 (some centres undefined)
Activity (A549 [8]): 26.74%
